Like-named read-outs stand apart in the source and are kept apart here.
Key:
Assay type in all cases: cell-based
[1] = test system: various cell lines; experiment: Toxicity in various cell lines (PBM, CEM, Vero); details: for toxicity, in words: PBM, CEM and Vero cells
[2] = test system: CEM cells; experiment: Toxicity in CEM cells
[3] = test system: HIV-1 (strain LAV); experiment: Anti-HIV-1 activity in PHA-stimulated human PBM cells (reverse transcriptase readout); details: for antiviral activity against HIV, in words: text b71, b85
Protocol: The ability of nucleosides to inhibit HIV can be measured by various experimental techniques. The technique used herein, and described in detail below, measures the inhibition of viral replication in phytohemagglutinin (PHA) stimulated human peripheral blood mononuclear (PBM) cells infected with HIV-1. (strain LAV). The amount of virus produced is determined by measuring the virus-coded reverse transcriptase enzyme. The amount of enzyme produced is proportional to the amount of virus produced.
Three-day-old phytohemagglutinin-stimulated PBM cells (10^6 cells/ml) from hepatitis B and HIV-1 seronegative healthy donors were infected with HIV-1 (strain LAV) at a concentration of about 100 times the 50% tissue culture infectious dose (TICD 50) per ml and cultured in the presence and absence of various concentrations of antiviral compounds.
Approximately one hour after infection, the medium, with the compound to be tested (2 times the final concentration in medium) or without compound, was added to the flasks (5 ml; final volume 10 ml). AZT was used as a positive control.
The cells were exposed to the virus (about 2×10^5 dpm/ml, as determined by reverse transcriptase assay) and then placed in a CO2 incubator. HIV-1 (strain LAV) was obtained from the Center for Disease Control, Atlanta, Ga. The methods used for culturing the PBM cells, harvesting the virus and determining the reverse transcriptase activity were those described by McDougal et al. (J. Immun. Meth. 76, 171-183, 1985) and Spira et al. (J. Clin. Meth. 25, 97-99, 1987), except that fungizone was not included in the medium (see Schinazi, et al., Antimicrob. Agents Chemother. 32, 1784-1787 (1988); Id., 34:1061-1067 (1990)).
On day 6, the cells and supernatant were transferred to a 15 ml tube and centrifuged at about 900 g for 10 minutes. Five ml of supernatant were removed and the virus was concentrated by centrifugation at 40,000 rpm for 30 minutes (Beckman 70.1 Ti rotor). The solubilized virus pellet was processed for determination of the levels of reverse transcriptase. Results are expressed in dpm/ml of sampled supernatant. Virus from smaller volumes of supernatant (1 ml) can also be concentrated by centrifugation prior to solubilization and determination of reverse transcriptase levels.

[4] = test system: HSV-1F; experiment: Anti-HSV-1 activity in Vero cells; details: Table 1
[5] = test system: Vero cells; experiment: Toxicity in Vero cells
[6] = test system: uninfected human PBM cells; experiment: Toxicity in mitogen-stimulated uninfected human PBM cells (cell count, trypan blue exclusion)
Protocol: Mitogen stimulated uninfected human PBM cells (3.8×10^5 cells/ml) were cultured in the presence and absence of drug under similar conditions as those used for the antiviral assay described above. The cells were counted after 6 days using a hemacytometer and the trypan blue exclusion method, as described by Schinazi et al., Antimicrobial Agents and Chemotherapy, 22(3), 499 (1982). […]

[7] = test system: SIVSMM; experiment: Anti-SIV activity in PBMC; details: Table 3; SIVSMM; read-out: Anti-SIV in PBMC EC50
[8] = test system: HIV-2ROD2; experiment: Anti-HIV-2 activity in PBMC; details: Table 3; HIV-2ROD2; read-out: Anti-HIV-2 in PBMC EC50
[9] = test system: hepatitis B virus in transfected HepG-2 (2.2.15) cells; experiment: Anti-HBV activity in 2.2.15 cell cultures (HBV virion DNA and replicative intermediates); details: for EC50 / EC90: day 9
Protocol: The ability of the active compounds to inhibit the growth of virus in 2.2.15 cell cultures (HepG2 cells transformed with hepatitis virion) can be evaluated as described in detail below.
A summary and description of the assay for antiviral effects in this culture system and the analysis of HBV DNA has been described (Korba and Milman, 1991, Antiviral Res., 15:217). The antiviral evaluations were performed on two separate passages of cells. All wells, in all plates, were seeded at the same density and at the same time.
Due to the inherent variations in the levels of both intracellular and extracellular HBV DNA, only depressions greater than 3.5-fold (for HBV virion DNA) or 3.0-fold (for HBV DNA replication intermediates) from the average levels for these HBV DNA forms in untreated cells are considered to be statistically significant [P<0.05]. The levels of integrated HBV DNA in each cellular DNA preparation (which remain constant on a per cell basis in these experiments) were used to calculate the levels of intracellular HBV DNA forms, thereby ensuring that equal amounts of cellular DNA were compared between separate samples.
Typical values for extracellular HBV virion DNA in untreated cells ranged from 50 to 150 pg/ml culture medium (average of approximately 76 pg/ml). Intracellular HBV DNA replication intermediates in untreated cells ranged from 50 to 100 pg/μg cell DNA (average approximately 74 pg/μg cell DNA). In general, depressions in the levels of intracellular HBV DNA due to treatment with antiviral compounds are less pronounced, and occur more slowly, than depressions in the levels of HBV virion DNA (Korba and Milman, 1991, Antiviral Res., 15:217).

[10] = test system: 2.2.15 cells (HepG2 cells transformed with hepatitis virion); experiment: Toxicity in 2.2.15 cells by neutral red dye uptake; details: Table 4; 2.2.15 cells; read-out: Cytotoxicity IC50 ± SD
Protocol: (§1) Toxicity analyses were performed to assess whether any observed antiviral effects were due to a general effect on cell viability. The method used herein was the measurement of the uptake of neutral red dye, a standard and widely used assay for cell viability in a variety of virus-host systems, including HSV and HIV. Toxicity analyses were performed in 96-well flat bottomed tissue culture plates. Cells for the toxicity analyses were cultured and treated with test compounds with the same schedule as described for the antiviral evaluations below. Each compound was tested at 4 concentrations, each in triplicate cultures (wells “A”, “B”, and “C”). Uptake of neutral red dye was used to determine the relative level of toxicity. The absorbance of internalized dye at 510 nm (Asin) was used for the quantitative analysis. Values are presented as a percentage of the average Asin values in 9 separate cultures of untreated cells maintained on the same 96-well plate as the test compounds. Dye uptake in the 9 control cultures on plate 5 ranged from 91.6% to 110.4%, and on plate 6 from 96.6% to 109%.

[11] = Toxicity in 2.2.15 cells by neutral red dye uptake; details: human, 2.2.15 cells (HepG2 cells transformed with hepatitis virion), 2.2.15 cells, read-out: Cytotoxicity IC50 ± SD
Protocol: as §1

[12] = Table 1, uninfected human PBM cells, 6 days
[13] = Table 3, HIV-1LAI, estimated 10% error factor, read-out: Anti-HIV-1 in PBMC EC50
[14] = Table 4, extracellular DNA, untreated control 88 pg/ml, read-out: HBV virion EC50 ± SD
[15] = Table 4, extracellular DNA, untreated control 88 pg/ml, read-out: HBV virion EC90 ± SD
[16] = Table 4, replicative intermediates (intracellular DNA), untreated control 79 pg/μg cell DNA, read-out: HBV RI EC50 ± SD
[17] = Table 4, replicative intermediates (intracellular DNA), untreated control 79 pg/μg cell DNA, read-out: HBV RI EC90 ± SD

| Compound | IC50 ([2]; Table 1) | EC50 [4] | IC50 ([5]; Table 1) | IC50 [6, 12] | EC50 [7] | IC50 ([2]; Table 3) | EC50 [3, 13] | EC50 [8] | IC50 ([5]; Table 3) | IC50 ([6]; Table 3) | toxicity, in words [1] | EC50 [9, 14] | EC90 [9, 15] | EC50 [9, 16] | EC90 [9, 17] | IC50 [10] | antiviral activity against HIV, in words [3] | Selectivity Index IC50/EC90 RI ([9]; Table 2) | Selectivity Index IC50/EC90 Virion ([9]; Table 2) | IC50 ([11]; Table 2) | further results |
| --- | --- | --- | --- | --- | --- | --- | --- | --- | --- | --- | --- | --- | --- | --- | --- | --- | --- | --- | --- | --- | --- |
| 5-carboxylic acid amide-2′,3′-dideoxy-3′-thiacytidine [C Carboxamide (±)-β-DL] | > 100 µM | > 100 µM | > 100 µM | > 100 µM | – | – | – | – | – | – | – | – | – | – | – | – | – | – | – | – | toxicity (no toxicity up to) ([1]; various cell lines): > 100 µM; EC50 ([3]; HIV-1 in PBM cells, read-out: median effective concentration (antiviral activity)): 0.77 µM |
| Nc1ccn([C@@H]2CS[C@H](CO)O2)c(=O)n1 (single isomer, unassigned) [3TC, (−)-enantiomer of 2-hydroxymethyl-5-(cytosin-1-yl)-1,3-oxathiolane, reference compound] | > 100 µM | > 100 µM | > 100 µM | > 100 µM | 0.02 µM | > 100 µM | 0.002 µM | 0.02 µM | > 100 µM | > 100 µM | – | – | – | – | – | – | – | – | – | – | EC50 ([3]; Table 1, HIV-1LAI, human PBM cells, estimated 10% error factor, read-out: Anti-HIV-1 in PBMC EC50): 0.002 µM |
| Nc1ccn([C@@H]2C=C[C@H](CO)O2)c(=O)n1 [L-D4C, β-L-2′,3′-didehydro-2′,3′-dideoxy-cytidine] | – | – | – | – | 0.048 µM | 0.73 µM | 0.0058 µM | 0.033 µM | 10.8 µM | > 100 µM | relatively nontoxic | 0.15 ± 0.02 µM | 0.33 ± 0.04 µM | 0.91 ± 0.09 µM | 2.3 ± 0.3 µM | 1040 ± 92 µM | significant activity against HIV | – | – | – | – |
| Nc1nc(=O)n([C@@H]2C=C[C@H](CO)O2)cc1F [L-F-D4C, β-L-2′,3′-didehydro-2′,3′-dideoxy-5-fluoro-cytidine] | – | – | – | – | 0.00015 µM | 7.3 µM | 0.0015 µM | 0.0006 µM | 40.3 µM | > 100 µM | relatively nontoxic | 0.28 ± 0.03 µM | 0.41 ± 0.04 µM | 0.33 ± 0.04 µM | 0.75 ± 0.07 µM | > 3 µM | significant activity against HIV | – | – | – | – |
| Nc1ccn([C@H]2CC[C@@H](CO)O2)c(=O)n1 [β-D-DDC, 2′,3′-dideoxycytidine, reference compound] | – | – | – | – | – | – | – | – | – | – | – | – | – | – | – | – | – | 18 | 26 | 236 ± 21 µM | EC50 ([9]; Hepatitis B virus, HepG2 2.2.15, 216 h, read-out: HBV RI EC50 ± SD, Table 2, replicative intermediates (intracellular DNA), untreated control 87 pg/μg cell DNA): 3.4 ± 0.4 µM; EC50 ([9]; Hepatitis B virus, HepG2 2.2.15, 216 h, read-out: HBV RI EC50 ± SD, Table 4, replicative intermediates (intracellular DNA), untreated control 79 pg/μg cell DNA): 2.4 ± 0.3 µM; EC90 ([9]; Hepatitis B virus, HepG2 2.2.15, 216 h, read-out: HBV RI EC90 ± SD, Table 2, replicative intermediates (intracellular DNA), untreated control 87 pg/μg cell DNA): 13 ± 1.4 µM; EC90 ([9]; Hepatitis B virus, HepG2 2.2.15, 216 h, read-out: HBV RI EC90 ± SD, Table 4, replicative intermediates (intracellular DNA), untreated control 79 pg/μg cell DNA): 12 ± 1.1 µM; EC50 ([9]; Hepatitis B virus, HepG2 2.2.15, 216 h, read-out: HBV virion EC50 ± SD, Table 2, extracellular DNA, untreated control 102 pg/ml): 1.4 ± 0.2 µM; EC50 ([9]; Hepatitis B virus, HepG2 2.2.15, 216 h, read-out: HBV virion EC50 ± SD, Table 4, extracellular DNA, untreated control 88 pg/ml): 1.5 ± 0.2 µM; EC90 ([9]; Hepatitis B virus, HepG2 2.2.15, 216 h, read-out: HBV virion EC90 ± SD, Table 2, extracellular DNA, untreated control 102 pg/ml): 9.6 ± 1.1 µM; EC90 ([9]; Hepatitis B virus, HepG2 2.2.15, 216 h, read-out: HBV virion EC90 ± SD, Table 4, extracellular DNA, untreated control 88 pg/ml): 8.2 ± 0.8 µM; Selectivity Index IC50/EC90 RI ([9]; Table 4): 22; Selectivity Index IC50/EC90 Virion ([9]; Table 4): 37; IC50 ([11]; Table 4): 259 ± 18 µM |
| Nc1nc(=O)n([C@@H]2CS[C@H](CO)O2)cc1F [β-L-FTC, (−)-cis-2-hydroxymethyl-5-(5-fluorocytosin-1-yl)-1,3-oxathiolane, reference compound] | – | – | – | – | – | – | – | – | – | – | – | – | – | – | – | – | – | 1,913 | 678 | 746 ± 33 µM | EC50 ([9]; Hepatitis B virus, HepG2 2.2.15, 216 h, Table 2, extracellular DNA, untreated control 102 pg/ml, read-out: HBV virion EC50 ± SD): 0.04 ± 0.006 µM; EC90 ([9]; Hepatitis B virus, HepG2 2.2.15, 216 h, Table 2, extracellular DNA, untreated control 102 pg/ml, read-out: HBV virion EC90 ± SD): 1.1 ± 0.1 µM; EC50 ([9]; Hepatitis B virus, HepG2 2.2.15, 216 h, Table 2, replicative intermediates (intracellular DNA), untreated control 87 pg/μg cell DNA, read-out: HBV RI EC50 ± SD): 0.16 ± 0.01 µM; EC90 ([9]; Hepatitis B virus, HepG2 2.2.15, 216 h, Table 2, replicative intermediates (intracellular DNA), untreated control 87 pg/μg cell DNA, read-out: HBV RI EC90 ± SD): 0.39 ± 0.22 µM |

Reference: patent US7419966B2, “[5-carboxamido or 5-fluoro]-[2′,3′-unsaturated or 3′-modified]-pyrimidine nucleosides” (Emory University, priority 1995, dated 2008)
